Assay results taken from patent US5580865A, “2,2-disubstituted cephem sulphones” (Farmitalia Carlo Erba S.r.l., priority 1992, dated 1996).

Target: T1, human leukocyte elastase (HLE) (Homo sapiens, UniProt P08246)
T1 construct: purchased Calbiochem
T1 sequence (P08246 30-247 limits assumed): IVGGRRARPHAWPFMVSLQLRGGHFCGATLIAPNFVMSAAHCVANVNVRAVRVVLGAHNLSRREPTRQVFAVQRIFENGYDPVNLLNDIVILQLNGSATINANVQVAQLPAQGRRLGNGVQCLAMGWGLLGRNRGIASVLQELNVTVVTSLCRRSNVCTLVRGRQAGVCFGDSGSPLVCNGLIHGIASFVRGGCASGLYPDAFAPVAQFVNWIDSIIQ
Assay: Kinetic parameters of HLE inhibition (fluorogenic substrate, steady-state KI^ss and K5/KI)
Format: biochemical
Conditions: HLE (Calbiochem), 37° C., pH 7.4 phosphate buffer, 1% DMSO, 1% MeCN; for kinact/KI: read-out: K5 /KI (rate of formation of the HLE-inhibitor complex); for Ki: read-out: KI^ss (apparent dissociation constant of the HLE-inhibitor complex at steady state)
Description: Kinetic parameters of HLE (Calbiochem) were determined at 37° C., 0.027M pH 7.4 phosphate buffer, 1% DMSO, 1% MeCN, NaCl (I=0.15), by monitoring the release of 7-amino-4-methylcoumarin (fluorescence detection) from N-methoxysuccinyl-alanyl-prolyl-valyl-7-amido-4-methylcoumarin as the substrate, according to the equations: [formula] wherein [P], [I], [S]=product, inhibitor, and substrate concentration
Km =Michaelis constant for the enzyme substrate pair (independently determined under the same experimental conditions)

CO[C@H]1C(=O)N2C(C(=O)C(C)(C)C)=C(C)C(C)(Sc3nnnn3C)S(=O)(=O)[C@H]12 (stereo partly drawn) [Compound 5, 4-tert-Butylcarbonyl-2,3-dimethyl-7α-methoxy-2-(1-methyl-1,2,3,4-tetrazol-5-yl)thio-3-cephem 1,1-dioxide] was tested, and the kinact/KI was 570000 M⁻¹ s⁻¹ and the Ki was 1.9 nM.
Work on CO[C@H]1C(=O)N2C(C(=O)C(C)(C)C)=C(C)C(Cc3ccc([N+](=O)[O-])cc3)(Sc3nnnn3C)S(=O)(=O)[C@H]12 (stereo partly drawn) [Compound 6, 4-tert-Butylcarbonyl-7α-methoxy-3-methyl-2-(1-methyl-1,2,3,4-tetrazol-5-yl)thio-2-(4-nitrobenzyl)-3-cephem 1,1-dioxide] yielded a kinact/KI of 600000 M⁻¹ s⁻¹ and a Ki of 1 nM.
With C=CCC1(Sc2nnnn2C)C(C)=C(C(=O)C(C)(C)C)N2C(=O)[C@H](OC)[C@H]2S1(=O)=O (stereo partly drawn) [Compound 7, 2-Allyl-4-tert-butylcarbonyl-7α-methoxy-3-methyl-2-(1-methyl-1,2,3,4-tetrazol-5-yl)thio-3-cephem 1,1-dioxide] the kinact/KI was 360000 M⁻¹ s⁻¹ and the Ki was 3 nM.
CO[C@H]1C(=O)N2C(C(=O)C(C)(C)C)=C(C)C(Cc3ccccc3)(Sc3nnnn3C)S(=O)(=O)[C@H]12 (stereo partly drawn) [Compound 10, 2-Benzyl-4-tert-butylcarbonyl-7α-methoxy-3-methyl-2-(1-methyl-1,2,3,4-tetrazol-5-yl)thio-3-cephem 1,1-dioxide] gave a kinact/KI of 110000 M⁻¹ s⁻¹ and a Ki of 4 nM.
In the case of CO[C@H]1C(=O)N2C(C(=O)C(C)(C)C)=C(C)C(C)(Sc3nc(=O)c(OC(c4ccccc4)c4ccccc4)nn3C)S(=O)(=O)[C@H]12 (stereo partly drawn) [Compound 11, 2-(6-Benzhydryloxy-2-methyl-5-oxo-2,5-dihydro-1,2,4-triazin-3-yl)thio-4-tert-butylcarbonyl-2,3-dimethyl-7α-methoxy-3-cephem 1,1-dioxide], the kinact/KI is reported as 1.3e+07 M⁻¹ s⁻¹ and the Ki is reported as less than 1 nM.
For CO[C@H]1C(=O)N2C(C(=O)C(C)(C)C)=C(C)C(C)(Sc3nc(=O)c(O)nn3C)S(=O)(=O)[C@H]12 (stereo partly drawn) [Compound 12, 2-(2,5-Dihydro-6-hydroxy-2-methyl-5-oxo-1,2,4-triazin-3-yl)thio-4-tert-butylcarbonyl-2,3-dimethyl-7α-methoxy-3-cephem 1,1-dioxide], the kinact/KI was 37000 M⁻¹ s⁻¹ and the Ki was 30 nM.
For COc1nn(C)c(SC2(C)C(C)=C(C(=O)C(C)(C)C)N3C(=O)[C@H](OC)[C@H]3S2(=O)=O)nc1=O (stereo partly drawn) [Compound 15, 2-(2,5-Dihydro-6-methoxy-2-methyl-5-oxo-1,2,4-triazin-3-yl)thio-4-tert-butylcarbonyl-2,3-dimethyl-7α-methoxy-3-cephem 1,1-dioxide], the kinact/KI was 1.4e+06 M⁻¹ s⁻¹.
In the case of CO[C@H]1C(=O)N2C(C(=O)C(C)(C)C)=C(C)C(Cc3ccccc3)(Sc3nc(=O)c(O)nn3C)S(=O)(=O)[C@H]12 (stereo partly drawn) [Compound 18, 2-Benzyl-2-(2,5-dihydro-6-hydroxy-2-methyl-5-oxo-1,2,4-triazin-3-yl)thio-4-tert-butylcarbonyl-7α-methoxy-3-methyl-3-cephem 1,1-dioxide], the kinact/KI is reported as 14000 M⁻¹ s⁻¹ and the Ki is reported as 16 nM.
For C=CCC1(Sc2nc(=O)c(OC(c3ccccc3)c3ccccc3)nn2C)C(C)=C(C(=O)C(C)(C)C)N2C(=O)[C@H](OC)[C@H]2S1(=O)=O (stereo partly drawn) [Compound 24, 2-allyl-2-(6-benzhydryloxy-2,5-dihydro-2-methyl-5-oxo-1,2,4-triazin-3-yl)thio-4-tert-butylcarbonyl-7α-methoxy-3-methyl-3-cephem 1,1-dioxide], the kinact/KI was 93000 M⁻¹ s⁻¹ and the Ki was 8 nM.
Work on CO[C@H]1C(=O)N2C(C(=O)C(C)(C)C)=C(CSc3nnnn3C)C(C)(Sc3nnnn3C)S(=O)(=O)[C@H]12 (stereo partly drawn) [Compound 28, 4-tert-Butylcarbonyl-7α-methoxy-2-methyl-2-(1-methyl-1,2,3,4-tetrazol-5-yl)thio-3-(1-methyl-1,2,3,4-tetrazol-5-yl)thiomethyl-3-cephem 1,1-dioxide] yielded a kinact/KI of 1.4e+06 M⁻¹ s⁻¹ and a Ki of 3 nM.
CO[C@H]1C(=O)N2C(C(=O)C(C)(C)C)=C(C)C(Cc3ccc(C(=O)OC(c4ccccc4)c4ccccc4)cc3)(Sc3nnnn3C)S(=O)(=O)[C@H]12 (stereo partly drawn) [Compound 30, 2-(4-benzhydryloxycarbonylbenzyl)-4-tert-Butylcarbonyl-7α-methoxy-3-methyl-2-(1-methyl-1,2,3,4-tetrazol-5-yl)thio-3-cephem1,1-dioxide] gave a kinact/KI of 77000 M⁻¹ s⁻¹ and a Ki of 1 nM.
For C=CCOC(=O)c1ccc(CC2(Sc3nnnn3C)C(C)=C(C(=O)C(C)(C)C)N3C(=O)[C@H](OC)[C@H]3S2(=O)=O)cc1 (stereo partly drawn) [Compound 31, 2-(4-allyloxycarbonylbenzyl)-4-tert-butylcarbonyl-7α-methoxy-3-methyl-2-(1-methyl-1,2,3,4-tetrazol-5-yl)thio-3-cephem 1,1-dioxide], the kinact/KI was 560000 M⁻¹ s⁻¹ and the Ki was 1.3 nM.
Work on CO[C@H]1C(=O)N2C(C(=O)C(C)(C)C)=C(C)C(Cc3ccc(C(=O)O)cc3)(Sc3nnnn3C)S(=O)(=O)[C@H]12 (stereo partly drawn) [Compound 32, 4-tert-Butylcarbonyl-2-(4-carboxybenzyl)-7α-methoxy-3-methyl-2-(1-methyl-1,2,3,4-tetrazol-5-yl)thio-3-cephem 1,1-dioxide] yielded a kinact/KI of 200000 M⁻¹ s⁻¹ and a Ki of 7 nM.
Work on CO[C@H]1C(=O)N2C(C(=O)C(C)(C)C)=C(C)C(Cc3ccccc3)(Sc3nc(=O)c(OCc4ccccc4)nn3C)S(=O)(=O)[C@H]12 (stereo partly drawn) [Compound 46, 2-Benzyl-2-(6-benzyloxy-2,5-dihydro-2-methyl-5-oxo-1,2,4-triazin-3-yl)thio-4-tert-butylcarbonyl-7α-methoxy-3-methyl-3-cephem 1,1-dioxide] yielded a kinact/KI of 160000 M⁻¹ s⁻¹ and a Ki of 4 nM.
CO[C@H]1C(=O)N2C(C(=O)C(C)(C)C)=C(CSc3nnnn3C)C(Sc3nnnn3C)S(=O)(=O)C12 (some centres unmarked) [Ref. 2, reference compound] gave a Ki of 93 nM.
CO[C@H]1C(=O)N2C(C(=O)N3CCCC3)=C(CSc3nc(=O)c(O)nn3C)CS(=O)(=O)[C@H]12 [Ref. 3, reference compound] was tested, and the kinact/KI was 1500 M⁻¹ s⁻¹.
